Measured values reported in US8853373B2, “Method and reagent for gene sequence analysis” (Hitachi, Ltd., priority 2009, dated 2014).

Legend:
Type in all cases: biochemical
[1] = system: nucleotides G, C, and A (Sequence GA, Sequence CG, Sequence AG); assay: Exclusivity of the other nucleotides (G, C, and A), elongation luminescence; conditions: for Exclusivity of the other nucleotides (G, C, and A): CG, AG, luminescence normalized to dCTP, dGTP, dTTP as 1
Protocol: (§1) Incorporation into nucleic acid was evaluated as follows. First, one of the above sequences was used as a target. Next, the primer was made to complementarily bind to the target. Then, an elongation experiment was carried out using the respective nucleic acid substrates for that sample. The synthesized nucleic acid substrate requires an affinity (complementary characteristics) with nucleotide T, and exclusivity of the other nucleotides (G, C, and A). The affinity with nucleotide T was evaluated using the Sequence TG and the primer. The exclusivity of the other nucleotides (G, C, and A) was evaluated using the respective Sequence GA, Sequence CG, and Sequence AG, and the primer. In addition, Sequence 5T was used for the evaluation of an ability of continuous incorporation into nucleotide T.
(§2) A sequencing method using a stepwise chemical reaction is described below. First, 35 μL of ultrapure water, 5 μL of oligo DNA (10 μM) of analysis object (target), and 5 μL of a primer (20 μM) were mixed with 5 μL of a hybridization buffer (10 mM Tris-Acetate, 20 mM Mg-Acetate, pH 7.75) (a sample solution: the final volume was 50 μL). Then, the sample solution was heated at 94° C. for 20 seconds, and reacted at a Tm temperature of the primer for 2 minutes. After that, 0.5 μL, (target: […], primer: […]) of this sample solution, 20 of a luminescence reagent which is designated in Condition 2 of Table 1, and 0.2 μL of a polymerase enzyme (the final concentration: 0.05 U/4) were mixed to prepare a reaction reagent (the final volume was 20.7 μL). To this reaction reagent was added 0.4 μL of 100 μM nucleic acid substrate (the final concentration 2 μM). When nucleic acid elongation occurs, bioluminescence derived from pyrophosphate of the elongation reaction product can be observed. The reaction has a luminescence peak a few seconds after the reaction initiation. […] This luminescence peak value is virtually proportional to the amount of generated pyrophosphate. Measurement of the peak value enables a degree of nucleic acid elongation to be estimated.
Next, with regard to the respective synthetic substrates, the exclusivity of the other nucleotides (G, C, and A) was assessed using each of Sequence GA, Sequence CG, and Sequence AG and the primer. […] In addition, a background luminescence component of the respective substrates was compensated by taking its difference into account in a manner similar to that of the preceding figures.

[2] = system: nucleotide T (Sequence TG); assay: Affinity between synthetic substrates and nucleotide T (one-nucleotide elongation, Sequence TG, luminescence); conditions: compared with dATPαS / other substrates
Protocol: as §1
A sequencing method using a stepwise chemical reaction is described below. […] After that, 0.5 μL, (target: […], primer: […]) of this sample solution, 20 of a luminescence reagent which is designated in Condition 2 of Table 1, and 0.2 μL of a polymerase enzyme (the final concentration: 0.05 U/4) were mixed to prepare a reaction reagent (the final volume was 20.7 μL). […] The reaction has a luminescence peak a few seconds after the reaction initiation. […] This luminescence peak value is virtually proportional to the amount of generated pyrophosphate. […]

[3] = system: 5 consecutive nucleotides of T (Sequence 5T); assay: Ability of incorporation into consecutive nucleotides of T (Sequence 5T), three consecutive injections; conditions: 5 consecutive nucleotides; final concentration 4 μM; E1 = luminescence of 2nd and 3rd injections / total of 1st to 3rd
Protocol: as §1, §2
Next, by using Sequence 5T, the ability of incorporation of the respective synthetic substrates into consecutive nucleotides of T was evaluated by the following procedure. The reaction reagent was prepared by using Sequence 5T as a target oligo in the same manner as in the case of evaluation of elongation of one nucleotide as described before. In this case, a target oligo 111 and a primer 112 form a complementary strand binding as depicted in FIG. 11(1). Due to the above, when dATP is dispensed into this reaction reagent as a substrate, five molecules of the substrate are consecutively elongated per target molecule as a primer having the substrate at the 3′ end 113, thereby releasing five molecules of pyrophosphate. If the elongation for all the five nucleotides is not completed, a portion of the nucleotide T remains in a single-stranded state. Because of this, when substrate dATP is dispensed again, the portion is elongated only in the case where a portion of incomplete elongation remains. Therefore, the release of pyrophosphate can be detected as luminescence. […] In addition, substrate dCTP, which is complementary to nucleotide G 114, was subsequently dispensed twice to detect luminescence. […]

[4] = target: luciferase (Photinus pyralis, UniProt P08659); assay: Evaluation of substrate specificity for luciferase (luminescence on dispensing the substrate)
Chain of luciferase (P08659 whole entry, species assumed): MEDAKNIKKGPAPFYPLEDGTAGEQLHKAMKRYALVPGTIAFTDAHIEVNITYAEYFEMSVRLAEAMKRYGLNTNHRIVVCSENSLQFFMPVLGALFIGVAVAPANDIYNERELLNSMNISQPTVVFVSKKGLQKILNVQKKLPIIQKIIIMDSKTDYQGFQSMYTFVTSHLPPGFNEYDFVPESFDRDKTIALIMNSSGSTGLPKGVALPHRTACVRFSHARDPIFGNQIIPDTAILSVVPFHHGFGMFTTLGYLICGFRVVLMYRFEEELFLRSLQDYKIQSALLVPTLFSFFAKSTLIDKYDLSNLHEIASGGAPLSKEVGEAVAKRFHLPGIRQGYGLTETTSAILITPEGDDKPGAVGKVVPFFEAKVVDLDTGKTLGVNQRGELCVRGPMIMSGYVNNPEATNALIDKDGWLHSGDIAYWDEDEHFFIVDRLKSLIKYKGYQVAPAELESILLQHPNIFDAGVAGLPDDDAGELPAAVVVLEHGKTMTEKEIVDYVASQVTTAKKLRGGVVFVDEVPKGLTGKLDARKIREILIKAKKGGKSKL
Protocol: In respect to the nucleic acid substrates synthesized, whether or not the substrates became a substrate for luciferase was evaluated by the following procedure. First, a luminescence reagent designated in Condition 1 of Table 1 was prepared.
Next, a reaction solution was prepared using 20 μL of this luminescence reagent, and 0.2 μL of a nucleic acid substrate of evaluation subject was injected. Then, luminescence emitted at this occasion was estimated. FIG. 6 is a graph showing the amount of luminescence when ATP, dATP, C^7dATP, and dATPαS are each dispensed as a substrate. The abscissa (C) indicates a final concentration of the compound in a reaction reagent. For example, when 0.2 μl of 1 μM substrate is dispensed, the final concentration is about 0.01 μM. An amount of luminescence (U) indicated in the ordinate was plotted by normalizing the amount of luminescence at 0.01 μM of ATP as 1. From this graph, the amount of luminescence (U) is found to be proportional to the final concentration (C). Because of this, as a substrate specificity (or substrate reactivity) for luciferase, the value (S) indicating the amount of luminescence per unit concentration is defined as described below. Substrate specificity (S)≡Amount of luminescence (U)/Final concentration (C)[μM]×0.01 (In this Definition, the Substrate Specificity of ATP is Normalized as 1).
The four points designated in the left side of the graph indicate each substrate specificity (S) of ATP, dATP, dATPαS, and C^7dATP. For a sequencing method using a stepwise chemical reaction represented by pyrosequencing, the amount of ATP generated from pyrophosphate produced in elongation of one nucleotide is equivalent to the amount of a target present in a reaction solution when all of the targets have been elongated. In addition, elongation of a plurality of nucleotides causes the amount to be multiplied by the number of the nucleotides. Generally speaking, the amount of a nucleic acid substrate which should be dispensed per reaction for sequencing requires about 100 times the amount of the target for analysis. This is because a sequenced region may sometimes contain about 10 consecutive identical nucleotides; and a reaction solution for this sequencing method has a substrate-degrading enzyme together, so that the nucleic acid elongation and substrate degradation are competed. Shortage of the substrates causes incomplete elongation, so that the following sequence analysis cannot be carried out. […] As a countermeasure against it, the substrate having about 100 times the target amount which has been generally used is preferably dispensed per reaction.
In this Example, the synthesized nucleic acid substrates were purified by liquid chromatography. However, removal of pyrophosphate that had been incorporated during the synthesis may be insufficiently carried out only by liquid chromatography-mediated purification. At that occasion, the present inventors treated the synthesized nucleic acid substrates by a pyrophosphate-degrading enzyme (PPase) to decompose the pyrophosphate. Specifically, the synthesized nucleic acid substrate was diluted in a reaction solution (100 mM Tris-Acetate, 0.5 mM EDTA, 5 mM Mg-Acetate, 1 mM DTT, pH 7.5) at a concentration of 500 μM. Then, PPase was added at 0.2 mU/μL, and the mixture was reacted at 30° C. for 30 minutes, which caused degradation of pyrophosphate in the solution. This method represents one example. […]

[5] = system: DNA Sequence S2; assay: Sequence analysis by stepwise chemical reaction (pyrogram), PPDK system, Condition 4; conditions: DNA Sequence S2 (3 consecutive nucleotides)
Protocol: Therefore, a sequence having 3 consecutive nucleotides of T was analyzed for comparison. Analyzed DNA Sequence S2 and a primer P3 are described below.
Of note is that Sequence P3 represents a primer sequence. This primer can complementarily bind to the underlined portion of the above DNA Sequence S2. FIGS. 16 to 20 show the results of a sequence analysis. In addition, the reagent conditions were listed together in the following Table 3.
In this experiment, an enzyme system which converts PPi into ATP has employed an enzyme system in which PPi and AMP are converted into ATP by PPDK as described in the conventional technique (Patent Literature 4). The items of the figure are identical to those of FIG. 15. At the bottom of the respective figures, the injected nucleotide types are designated. At the top, the nucleotide types which have been incorporated into a complementary DNA sequence of analysis object are designated. The substrate was injected in the order of “bases A, T, C, and G”, and 7 cycles were analyzed. As indicated in the target sequence, in this analysis, two regions (Cycle 4 and Cycle 7) having 3 consecutive nucleotides of A incorporated are present. Because of this, a difference in the ability of continuous incorporation of a nucleic acid substrate that is used as a nucleotide A can be assessed. Hereinafter, the details are described.
First, three kinds of the substrates (A3d, dATPαS, and C^7dATP) having the final concentration of 2 μM were used. The results of a sequence analysis will be described (FIGS. 16 to 20). […] At the time of dispensing A (surrounded by the circle ◯) which represented the injected nucleotide type, A3d was used. […] Accordingly, as the signal corresponding to A at the first cycle indicated, background luminescence was observed. Due to this phenomenon, the luminescence signal corresponding to nucleotide A constantly included the increased background luminescence. The symbol • in the figure denotes elongation luminescence corresponding to a nucleotide sequence of a sample. In contrast, the major luminescence without corresponding to the nucleotide sequence is represented by the symbol ∇. […] At the time of dispensing A (surrounded by the circle ◯) which represented the injected nucleotide type, dATPαS was used. The resulting pyrogram and the nucleotide sequence of a sample were compared. The symbol • in the figure denotes elongation luminescence corresponding to a nucleotide sequence of a sample. In contrast, the major luminescence without corresponding to the nucleotide sequence is represented by the symbol ∇. […] At the time of dispensing A (surrounded by the circle ◯) which represented the injected nucleotide type, C^7dATP was used. […] Accordingly, as the signal corresponding to A at the first cycle indicated, big background luminescence was observed. Due to this phenomenon, the luminescence signal corresponding to nucleotide A constantly included the increased background luminescence. The symbol x in the figure denotes just a background luminescence signal. The symbol • denotes elongation luminescence corresponding to a nucleotide sequence of a sample. However, the symbol (•) denotes inclusion of both elongation-derived luminescence and background luminescence. In contrast, the major luminescence without corresponding to the nucleotide sequence is represented by the symbol ∇.

## NCCCCCCNC(=O)CCc1cn([C@H]2CC(O)[C@@H](COP(=O)(O)OP(=O)(O)OP(=O)(O)O)O2)c2ncnc(N)c12 (some centres unmarked) [B4]
[1]
  Exclusivity of the other nucleotides (G, C, and A): exhibits luminescence

## CCCNC(=O)/C=C/c1cn([C@H]2CC(O)[C@@H](COP(=O)(O)OP(=O)(O)OP(=O)(O)O)O2)c2ncnc(N)c12 (some centres unmarked) [A3c]
[2]
  Reaction rate of nucleic acid elongation (luminescence profile): higher reaction rate
[1]
  Exclusivity of nucleotide G: a little poor exclusivity
  Exclusivity of the other nucleotides (G, C, and A): generally good

## Nc1ncnc2c1c(/C=C/C(=O)NCCc1ccccn1)cn2[C@H]1CC(O)[C@@H](COP(=O)(O)OP(=O)(O)OP(=O)(O)O)O1 (some centres unmarked) [A3b]
[3]
  Rate of Incomplete Elongation after the First Injection (%): 11.2 ± 2.9%
[1]
  Exclusivity of the other nucleotides (G, C, and A): excellent exclusivity

## Nc1ncnc2c1ccn2[C@H]1C[C@H](O)[C@@H](COP(=O)(O)OP(=O)(O)OP(=O)(O)O)O1 [C^7dATP, 7-deaza-2′-deoxyadenosine triphosphate]
[4]; FIG. 7
  Substrate specificity for luciferase compared with that of dATPαS: about two orders higher
[4]; amount of luminescence per unit concentration, substrate specificity of ATP normalized as 1
  Substrate specificity (S) for luciferase, relative to that of ATP: about 1/250
[5]; final concentration 2 μM, 7 cycles
  Sequence analysis result as substitute for dATP: substrate-derived background luminescence was large, so that the precise sequence identification was found to be difficult
[5]; final concentration 4 μM
  Sequence analysis result as substitute for dATP: incomplete elongation for the nucleotide G at Cycle 5 was not improved

## Nc1ncnc2c1c(/C=C/C(=O)NCCc1ccccc1)cn2[C@H]1CC(O)[C@@H](COP(=O)(O)OP(=O)(O)OP(=O)(O)O)O1 (some centres unmarked) [A3a]
[1]
  Exclusivity of the other nucleotides (G, C, and A): exhibits luminescence for all the three kinds of nucleotides
